Laboratory results published in PMC11279465, “Dual Inhibitors of P-gp and Carbonic Anhydrase XII (hCA XII) against Tumor Multidrug Resistance with Piperazine Scaffold” (Molecules, 2024).

Tests used:
A549 cells = experiment: Intrinsic cytotoxicity (MTT); assay type: cell-based, human; settings: compound alone at 1 µM; parental A549; 48 h
Protocol: (§1) All compounds were preliminarily studied to evaluate their intrinsic cytotoxicity at different concentrations (from 10 nM to 50 µM) in the parental HT29 and A549 and the resistant HT29/DOX and A549/DOX cells using the MTT assay.
(§2) The intrinsic toxicity of the studied compounds was determined by an MTT assay. K562 and K562/DOX were exposed for 72 h with compounds at 1 and 3 µM concentrations while HT29, A549, HT29/DOX and A549/DOX cells were incubated for 48 h with compounds used at different concentrations (from 10 nM to 50 µM). The percentage of growth compared to the untreated control was transformed into histograms with the GraphPad Prism 5 program.

HT29 cells = experiment: Intrinsic cytotoxicity (MTT); assay type: cell-based, human; settings: compound alone at 1 µM; parental HT29; 48 h
Protocol: as §1, §2

HT29/DOX cells = experiment: Intrinsic cytotoxicity (MTT); assay type: cell-based, human; settings: compound alone at 1 µM; HT29/DOX; 48 h
Protocol: as §1
as §2, with “program. […]” for “program.”

A549/DOX cells = experiment: Intrinsic cytotoxicity (MTT); assay type: cell-based, human; settings: compound alone at 1 µM; A549/DOX; 48 h
Protocol: as §1
as §2, with “program. […]” for “program.”

hCA II = biological target: T1, hCA II (Homo sapiens, UniProt P00918); experiment: CA inhibition, stopped-flow CO2 hydrase assay; assay type: biochemical; settings: stopped-flow technique; incubation time 6 h; mean of 3 assays
T1 construct: made in house
Protocol: (§3) Four hCA isoforms were used in this assay: the cytosolic hCA I and II and the tumor-associated transmembrane hCA IX and XII isoforms. Acetazolamide (AAZ) was used as a standard inhibitor.
(§4) An SX.18MV-R Applied Photophysics (Oxford, UK) stopped-flow instrument has been used to assay the catalytic/inhibition of various CA isozymes. […] Saturated CO2 solutions in water at 25 °C were used as substrate. Stock solutions of inhibitors were prepared at a concentration of 10 μM (in DMSO-water 1:1, v/v) and dilutions up to 0.01 nM were carried out with the assay buffer mentioned above. […] Inhibitor and enzyme solutions were preincubated together for 6 h at room temperature prior to assay in order to allow for the formation of the E-I complex. […] The inhibition constants were obtained by non-linear least-squares methods using the Cheng–Prusoff equation, as reported earlier, and represent the mean from at least three different determinations.

hCA IX = biological target: T2, hCA IX (Homo sapiens, UniProt Q16790); experiment: CA inhibition, stopped-flow CO2 hydrase assay; assay type: biochemical; settings: stopped-flow technique; incubation time 6 h; mean of 3 assays
T2 construct: made in house
Protocol: as §3, §4

hCA I = biological target: T3, hCA I (Homo sapiens, UniProt P00915); experiment: CA inhibition, stopped-flow CO2 hydrase assay; assay type: biochemical; settings: stopped-flow technique; incubation time 6 h; mean of 3 assays
T3 construct: made in house
T3 sequence (P00915 whole entry): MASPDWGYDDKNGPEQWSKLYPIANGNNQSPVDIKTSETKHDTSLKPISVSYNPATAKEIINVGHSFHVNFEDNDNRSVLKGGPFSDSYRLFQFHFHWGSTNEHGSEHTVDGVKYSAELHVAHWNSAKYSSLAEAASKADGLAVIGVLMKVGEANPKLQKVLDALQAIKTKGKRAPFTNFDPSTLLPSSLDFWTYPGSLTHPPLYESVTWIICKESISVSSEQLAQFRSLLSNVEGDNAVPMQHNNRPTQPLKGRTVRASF
Protocol: as §3, §4

hCA XII = biological target: T4, hCA XII (Homo sapiens, UniProt O43570); experiment: CA inhibition, stopped-flow CO2 hydrase assay; assay type: biochemical; settings: stopped-flow technique; incubation time 6 h; mean of 3 assays
T4 construct: made in house
T4 sequence (O43570 25-354): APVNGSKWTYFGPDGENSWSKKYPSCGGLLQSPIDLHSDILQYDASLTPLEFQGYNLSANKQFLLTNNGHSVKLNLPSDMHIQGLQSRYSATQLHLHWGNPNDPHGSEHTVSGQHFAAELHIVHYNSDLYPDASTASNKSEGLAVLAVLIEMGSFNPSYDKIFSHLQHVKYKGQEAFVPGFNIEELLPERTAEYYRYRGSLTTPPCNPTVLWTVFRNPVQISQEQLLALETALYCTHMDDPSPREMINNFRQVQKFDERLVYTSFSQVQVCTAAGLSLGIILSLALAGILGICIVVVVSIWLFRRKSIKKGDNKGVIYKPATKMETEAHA
Protocol: as §3, §4

K562/DOX cells = experiment: Doxorubicin cytotoxicity enhancement assay (MTT); assay type: cell-based, human; settings: 72 h
Protocol: K562 is a highly undifferentiated erythroleukemia cell line. The doxorubicin-resistant K562/DOX cells overexpress almost exclusively the transporter membrane protein P-gp.
K562/DOX cells were incubated for 72 h with different concentrations of doxorubicin in combination with 1 or 3 µM of all compounds. […] HT29, A549, HT29/DOX and A549/DOX cells were incubated for 48 h with 5 µM doxorubicin, alone or in combination with 1 or 3 µM of selected compounds. Cell viability of the cell lines was measured by the MTT assay, using a Synergy HT microplate spectrofluorometer (Bio-Tek Instruments, Winooski, VT, USA). The absorbance of untreated cells was considered 100%; results were expressed as a percentage of viable treated cells versus the control untreated cells.

SMILES | Ki (hCA II) [µM] | Ki (hCA IX) [µM] | Ki (hCA I) [µM] | Ki (hCA XII) [µM] | toxicity (A549 cells) [%] | toxicity (HT29 cells) [%] | toxicity (HT29/DOX cells) [%] | toxicity (A549/DOX cells) [%] | RF (Reversal Fold: IC50 of doxorubicin alone / in presence of modulator) (K562/DOX cells; compound at 3 µM) | RF (Reversal Fold: IC50 of doxorubicin alone / in presence of modulator) (K562/DOX cells; compound at 1 µM)
COc1cc(CN2CCN(CCCCOc3ccc4ccc(=O)oc4c3)CC2)cc(OC)c1OC [Compound 15, 7-(4-(4-(3,4,5-Trimethoxybenzyl)piperazin-1-yl)butoxy)-2H-chromen-2-one] | > 10 | 0.029 | > 10 | 0.0429 |  |  | ≥ 35 | ≥ 35 | 2.3 | 1.2
COc1cc(/C=C/CN2CCN(CCCCOc3ccc4ccc(=O)oc4c3)CC2)cc(OC)c1OC [Compound 3, (E)-7-(4-(4-(3-(3,4,5-Trimethoxyphenyl)allyl)piperazin-1-yl)butoxy)-2H-chromen-2-one] | > 10 | 0.082 | > 10 | 0.0346 |  |  |  |  | 3.7 | 3.1
COc1cc(/C=C/CN2CCN(CCCCOc3ccc4c(C)cc(=O)oc4c3)CC2)cc(OC)c1OC [Compound 6, (E)-4-Methyl-7-(4-(4-(3-(3,4,5-trimethoxyphenyl)allyl)piperazin-1-yl)butoxy)-2H-chromen-2-one] | > 10 | 0.0589 | > 10 | 0.0448 |  |  |  |  | 6.7 | 6.3
COc1ccc(C(CCCN2CCN(CCCCOc3ccc4oc(=O)cc(C)c4c3)CC2)c2ccc(OC)cc2)cc1 [Compound 36, 6-(4-(4-(4,4-Bis(4-methoxyphenyl)butyl)piperazin-1-yl)butoxy)-4-methyl-2H-chromen-2-one] | > 10 | 0.332 | > 10 | 0.298 | ≥ 35 | ≥ 35 | ≥ 35 | ≥ 35 |  | 
COc1cc(/C=C/CN2CCN(CCCCOc3ccc4oc(=O)cc(C)c4c3)CC2)cc(OC)c1OC [Compound 12, (E)-4-Methyl-6-(4-(4-(3-(3,4,5-trimethoxyphenyl)allyl)piperazin-1-yl)butoxy)-2H-chromen-2-one] | > 10 | 0.104 | > 10 | 0.14 | ≥ 35 | ≥ 35 | ≥ 35 | ≥ 35 | 2.7 | 1.9
COc1cc(CN2CCN(CCCCOc3ccc4oc(=O)cc(C)c4c3)CC2)cc(OC)c1OC [Compound 24, 4-Methyl-6-(4-(4-(3,4,5-trimethoxybenzyl)piperazin-1-yl)butoxy)-2H-chromen-2-one] | > 10 | 0.205 | > 10 | 0.0995 |  |  |  |  | 2.5 | 1.4

Further lines, with some results ahead:

Ki (hCA II) [µM] | Ki (hCA IX) [µM] | Ki (hCA I) [µM] | Ki (hCA XII) [µM] | SMILES | toxicity (A549 cells) [%] | toxicity (HT29 cells) [%] | toxicity (HT29/DOX cells) [%] | toxicity (A549/DOX cells) [%] | RF (Reversal Fold: IC50 of doxorubicin alone / in presence of modulator) (K562/DOX cells; compound at 3 µM) | RF (Reversal Fold: IC50 of doxorubicin alone / in presence of modulator) (K562/DOX cells; compound at 1 µM)
> 10 | 0.523 | > 10 | 0.335 | COc1ccc(C(CCCN2CCN(CCCOc3ccc4oc(=O)cc(C)c4c3)CC2)c2ccc(OC)cc2)cc1 [Compound 35, 6-(3-(4-(4,4-Bis(4-methoxyphenyl)butyl)piperazin-1-yl)propoxy)-4-methyl-2H-chromen-2-one] | ≥ 35 | ≥ 35 | ≥ 35 | ≥ 35 | 14.3 | 
> 10 | 0.149 | > 10 | 0.0915 | COc1ccc(C(CCCN2CCN(CCCOc3ccc4c(C)cc(=O)oc4c3)CC2)c2ccc(OC)cc2)cc1 [Compound 29, 7-(3-(4-(4,4-Bis(4-methoxyphenyl)butyl)piperazin-1-yl)propoxy)-4-methyl-2H-chromen-2-one] | ≥ 35 | ≥ 35 | ≥ 35 | ≥ 35 |  | 
> 10 | 0.36 | > 10 | 0.422 | COc1cc(/C=C/CN2CCN(CCOc3ccc4oc(=O)cc(C)c4c3)CC2)cc(OC)c1OC [Compound 10, (E)-4-Methyl-6-(2-(4-(3-(3,4,5-trimethoxyphenyl)allyl)piperazin-1-yl)ethoxy)-2H-chromen-2-one] |  |  |  |  | 1.4 | 1.0
> 10 | 0.072 | > 10 | 0.0224 | COc1cc(CN2CCN(CCCOc3ccc4oc(=O)ccc4c3)CC2)cc(OC)c1OC [Compound 20, 6-(3-(4-(3,4,5-Trimethoxybenzyl)piperazin-1-yl)propoxy)-2H-chromen-2-one] |  |  |  |  | 2.4 | 2.3
> 10 | 0.0161 | > 10 | 0.0608 | COc1cc(CN2CCN(CCCOc3ccc4c(C)cc(=O)oc4c3)CC2)cc(OC)c1OC [Compound 17, 4-Methyl-7-(3-(4-(3,4,5-trimethoxybenzyl)piperazin-1-yl)propoxy)-2H-chromen-2-one] |  |  |  |  | 2.1 | 2.6
> 10 | 0.666 | > 10 | 0.851 | COc1ccc(C(CCCN2CCN(CCOc3ccc4oc(=O)cc(C)c4c3)CC2)c2ccc(OC)cc2)cc1 [Compound 34, 6-(2-(4-(4,4-Bis(4-methoxyphenyl)butyl)piperazin-1-yl)ethoxy)-4-methyl-2H-chromen-2-one] |  |  |  |  | 14.3 | 5.7
> 10 | 0.0407 | > 10 | 0.0229 | COc1cc(/C=C/CN2CCN(CCCOc3ccc4oc(=O)ccc4c3)CC2)cc(OC)c1OC [Compound 8, (E)-6-(3-(4-(3-(3,4,5-Trimethoxyphenyl)allyl)piperazin-1-yl)propoxy)-2H-chromen-2-one] |  |  | ≥ 35 | ≥ 35 | 2.0 | 2.0
> 10 | 0.409 | > 10 | 0.229 | COc1cc(CN2CCN(CCOc3ccc4oc(=O)cc(C)c4c3)CC2)cc(OC)c1OC [Compound 22, 4-Methyl-6-(2-(4-(3,4,5-trimethoxybenzyl)piperazin-1-yl)ethoxy)-2H-chromen-2-one] |  |  |  |  | 2.7 | 2.8
